The target of one assay is T1, DR4 (DRA*0101/DRB1*0401) (Homo sapiens, UniProt P01903+P01911, A100K/A169T/F76Y/I96L/K127E/L162R/M171V/N62H/P40V/Q125Y/R42H/S133A/S149N/S66Y/V115G/V209L/W38E).
T1 construct: DRA*01011-181LZFos; DRB1*04011-190LZJunBSP; made in house
Description: Direct LOCI peptide-MHC-II binding assay, DR4. As to conditions: pH 6-7.5; 48 h 18°C; read-out: DR4 affinity.

In assay [1] the target is T2, DRB1*0813 (DRA*0101/DRB1*0813) (Homo sapiens, UniProt P01903+P01911, A100R/A103L/A169T/F76Y/H45Y/I96L/K41T/L162R/M171V/P40S/Q125H/Q178H/Q39Y/Q99D/R218S/R42G/S66Y/V115G/W38E).
T2 construct: DRA*01011-181LZFos; DRB1*08131-190LZJunBSP; made in house
Description: Direct LOCI peptide-MHC-II binding assay, DRB1*0813. As to conditions: pH 6-7.5; 48 h 18°C; read-out: DRB1*0813 affinity.

A further assay addresses DR1 (DRA*0101/DRB1*0101) (Homo sapiens, UniProt P01903+P01911, A100R/D57E/F55L/F60I/F76Y/I96L/L162R/M171V/P40L/Q125E/R42F/V115G/Y59C). The experiment in a line: Competitive peptide-HLA-DR1 binding assay, radioactive spun column.
A further assay addresses T3, DR3 (DRA*0101/DRB1*0301) (Homo sapiens, UniProt P01903+P01911, A100K/A102G/A103R/A169T/F55Y/I96L/K41T/L162R/M171V/P40S/Q125H/Q178H/Q39Y/R42S/S66N/T106N/T262R/W38E/Y61H).
T3 construct: DRA*01011-181LZFos; DRB1*03011-190LZJunBSP; made in house
The experiment in a line: Direct LOCI peptide-MHC-II binding assay, DR3. The conditions noted are these: pH 6-7; 48 h 18°C; read-out: DR3 affinity.

For a further assay, the target named is T4, DR4 (Homo sapiens, UniProt P01903+P01911).
T4 construct: made in house
Description: ELISA-based peptide-MHC class II binding assay, DR4. A general note: An ELISA detects its analyte on a solid surface through an enzyme-linked reagent.

Assay [2] has as its target T5, DR2a (DRA*0101/DRB5*0101) (Homo sapiens, UniProt P01903+Q30154).
T5 construct: DRA*01011-181LZFos; DRB5*01011-190LZJunBSP; made in house
The experiment in a line: Direct LOCI peptide-MHC-II binding assay, DR2a. The conditions noted are these: pH 6; 48 h 18°C; read-out: DR2a pH6 affinity.

In assay [3] the target is T6, DRB3*0301 (DRA*0101/DRB3*0301) (Homo sapiens, UniProt P01903+P79483, A169T/A212P/D57E/G115V/L67V/Q178H/R103Q/R40L/Y55F).
T6 construct: DRA*01011-181LZFos; DRB3*03011-190LZJunBSP; made in house
The experiment in a line: Direct LOCI peptide-MHC-II binding assay, DRB3*0301. The conditions noted are these: pH 7; 48 h 18°C; read-out: DRB3*0301 affinity.

Assay [4] deals with T5, DR2a (DRA*0101/DRB5*0101). The experiment in a line: Competitive LOCI peptide-MHC-II binding assay, DR2a. The conditions noted are these: pH 6-7.5; 48 h 18°C; read-out: DR2a Komp IC50.
Assay [5] deals with DP401 (DPA1*0103/DPB1*0401) (Homo sapiens, UniProt P04440+P20036). Description: Direct LOCI peptide-MHC-II binding assay, DP401. As to conditions: pH 7; 48 h 18°C; read-out: DP401 affinity.
A further assay has as its target T7, DR2 (DR2a) (Homo sapiens, UniProt P01903+Q30154).
T7 construct: DR2a: DRA*0101_1–181/DRB5*0101_1–190; made in house
The experiment in a line: ELISA-based peptide-MHC class II binding assay, DR2.

For the next assay, the target named is DR1 (Homo sapiens, UniProt P01903+P01911, A100R/D57E/F55L/F60I/F76Y/I96L/L162R/M171V/P40L/Q125E/R42F/V115G/Y59C). Description: biochemical. In kind it is binding.
The target in a further assay is T8, I-E^d (Mus musculus, UniProt P01904+P01915).
T8 construct: I-E^dA1-191LZFos; I-E^dB1-198LZJunBSP; made in house
Description: Direct LOCI peptide-MHC-II binding assay, I-E^d. As to conditions: 48 h 18°C; read-out: I-E^D affinity.

Where no end group is shown, it is not given here.

For orientation: IC50 means the concentration that gives 50% inhibition. For orientation: EC50 means the concentration needed to bring the measured effect to its halfway point. Low values mean an effect from little substance, high ones a need for much substance.

With YKYVKQNTLKLAT [HA306-318], the Kd at DR4 (DRA*0101/DRB1*0401) is 8 nM; in [1], 11 nM; at DR3 (DRA*0101/DRB1*0301), 13 nM; in assay [2] it was 10 nM; in [3], 4 nM; in [5] it was above 5000 nM. Also, the Kd at I-E^d worked out at 25 nM. Further, the figures for the IC50 (at DR1 (DRA*0101/DRB1*0101); in assay [4]) were 34 nM and 2 nM, respectively. In addition, the EC50 was determined as 43.1 nM at DR4, 1.2 nM on DR2 (DR2a) and 2.2 nM at DR1.

The values above are taken from publication PMC2690590, “Functional recombinant MHC class II molecules and high-throughput peptide-binding assays” (Immunome Research, 2009).
